Reference: publication PMC3475717, “A Spiroligomer α-Helix Mimic That Binds HDM2, Penetrates Human Cells and Stabilizes HDM2 in Cell Culture” (PLoS ONE, 2012)

Tested on: HepG2 cells
Assay: cell penetration, fluorescence and confocal microscopy; active vs. passive transport
Format: cell-based, human
Method: Cell Culture and Treatment. HepG2 (expressing wild-type p53) and Huh7 (expressing mutant p53) cell lines were purchased from the American Type Culture Collection (ATCC) and cultured as monolayers in Dulbecco’s modified Eagle’s medium (DMEM) (Invitrogen) supplemented with 100 mM nonessential amino acid solution, 100 mM sodium pyruvate, 100 U/mL penicillin, 100 μg/mL streptomycin, and 10% heat inactivated fetal bovine serum (FBS) (all from Hyclone).
Cells were maintained at 37° C and 5% CO2 and were treated with media that contained 0.5%
FBS. Nutlin-3 (Sigma) was dissolved in 0.01% DMSO (Sigma). This concentration of DMSO did not affect the cell phenotype. Both nutlin-3 and spiroligomers were added into the medium for final concentrations of 2 µM, 5 µM, 10 µM and 20 µM for 24 hours. For the western blot experiments detailed below, the time length for incubation with bis-peptide was 17 hours.
Fluorescence and Confocal Microscopy. Fluorescence and confocal microscopy were applied to live and fixed cells. Cells were grown on glass chambers and fixed with ice-cold 95:5 ethanol/acetic acid for 10 minutes at -20 °C. Sections were washed with PBS and mounted in Vectashield aqueous mounting medium with DAPI (Vector laboratories). Fluorescent specimens were analyzed using an ECLIPSE Ti microscope (Nikon), lenses with hardened […]
(1 picture or pasted object on this page, not shown here) […]
filters (Nikon), and a Nikon DS-Fi1 camera, which was operated by NIS Elements computer software (Nikon). Confocal microscopy was performed with a Leica SP-1 microscope, with illumination at 488 nm and spectral detection. […]
Mathematical model described8 and MxPro software (Stratagene) were used to process PCR data. End-point PCR reactions were assayed with PCR Master Mix (Promega). Samples were amplified in 34 cycles; each cycle consisted of 30 sec of denaturation at 95 °C, 30 sec of annealing at 60 °C, and 30 sec of elongation at 72 °C. After 34 cycles, samples were subjected to final elongation for 5 minutes at 72 °C. […]
fluorescence in the images.

## CC(C)CN1C(=O)[C@@H]2C[C@@]3(CN2C(=O)[C@@]12C[C@H]1C(=O)N(Cc4ccc(Cl)c(Cl)c4)[C@]4(C[C@@H]5C(=O)N[C@@H](CCc6ccccc6)C(=O)N5C4)C(=O)N1C2)NC(=O)[C@@H](CCCCNC(=S)Nc1ccc2c(c1)C(=O)OC21c2ccc(O)cc2Oc2cc(O)ccc21)NC3=O [Compound 1]
  mechanism of cell penetration: passive diffusion
HepG2, 37°C, 60 min pre-treatment with 10 mM sodium azide and 50 mM deoxy-D-glucose, 5 µM, 3.75 hours
  uptake of fluorescence with active transport inhibited: indistinguishable from control cells treated with 1 at 37 °C
